Reference: ChEMBL document CHEMBL1955771, “VX-322: a novel dual receptor tyrosine kinase inhibitor for the treatment of acute myelogenous leukemia” (J Med Chem, 2012)

Legend:
Leukemia cell = experiment: Cytotoxicity against human primary leukemia cells isolated from acute myeloid leukemia patient expressing wild type FLT3 assessed as cell viability at 0.0005 to 10 uM after 72 hrs by luciferase assay; assay type: functional, cell-based
Mus musculus [1] = experiment: Plasma concentration at steady state in BALB/c mouse xenografted with BA/F3 cells expressing FLT3-ITD mutant at 0.05 mg/kg, po qd; assay type: ADME, organism-based, BaF3; design: dose 0.05 mg/kg, route oral; settings: in vivo
BaF3 [2] = experiment: Antitumor activity against mouse BA/F3 cells expressing FLT3-ITD mutant xenografted in BALB/c mouse myeloproliferative model assessed as increase in host survival days administered by oral gavage qd relative to control; assay type: functional
cells [3] = settings: Homo sapiens, Leukemia cell, 72 h
Description: Cytotoxicity against human primary leukemia cells isolated from acute myeloid leukemia patient expressing wild type FLT3 assessed as cell viability after 72 hrs by luciferase assay

[4] = Half life in BALB/c mouse; assay type: ADME, organism-based; settings: in vivo
THP-1 = experiment: cells; settings: Homo sapiens, THP-1, 72 h
Description: Cytotoxicity against human THP1 cells assessed as cell viability after 72 hrs by resazurin dye based fluorescence assay

TF-1 [5] = experiment: cells; settings: Homo sapiens, TF-1, 72 h
Description: Cytotoxicity against human TF1 cells expressing PDGFR-beta assessed as cell viability after 72 hrs by resazurin dye based fluorescence assay

MV4-11 [6] = experiment: Induction of apoptosis in human MV4-11 cells at 100 nM assessed as prenecrotic cells after 24 hrs by annexin V and propidium iodide staining method (reference value: 90.3 %); assay type: functional
BaF3 [7] = experiment: Antitumor activity against mouse BA/F3 cells expressing FLT3-ITD mutant xenografted in BALB/c mouse myeloproliferative model assessed as increase in host survival days at 1 mg/kg, po qd relative to control (reference value: 20 days); assay type: functional, organism-based; design: dose 1 mg/kg
cells [8] = settings: Homo sapiens, Leukemia cell, 72 h; remark: listed apart in the source
Description: Cytotoxicity against human primary leukemia cells isolated from acute myeloid leukemia patient expressing FLT3-D835Y mutation assessed as cell viability after 72 hrs by luciferase assay

Mus musculus [9] = experiment: Plasma concentration at steady state in BALB/c mouse xenografted with BA/F3 cells expressing FLT3-ITD mutant at 5 mg/kg, po qd; assay type: ADME, organism-based, BaF3; design: dose 5 mg/kg, route oral; settings: in vivo
[10] = target: Vascular endothelial growth factor receptor 2 (Homo sapiens, UniProt P35968); experiment: Inhibition of KDR
Sequence of Vascular endothelial growth factor receptor 2 (P35968 whole entry): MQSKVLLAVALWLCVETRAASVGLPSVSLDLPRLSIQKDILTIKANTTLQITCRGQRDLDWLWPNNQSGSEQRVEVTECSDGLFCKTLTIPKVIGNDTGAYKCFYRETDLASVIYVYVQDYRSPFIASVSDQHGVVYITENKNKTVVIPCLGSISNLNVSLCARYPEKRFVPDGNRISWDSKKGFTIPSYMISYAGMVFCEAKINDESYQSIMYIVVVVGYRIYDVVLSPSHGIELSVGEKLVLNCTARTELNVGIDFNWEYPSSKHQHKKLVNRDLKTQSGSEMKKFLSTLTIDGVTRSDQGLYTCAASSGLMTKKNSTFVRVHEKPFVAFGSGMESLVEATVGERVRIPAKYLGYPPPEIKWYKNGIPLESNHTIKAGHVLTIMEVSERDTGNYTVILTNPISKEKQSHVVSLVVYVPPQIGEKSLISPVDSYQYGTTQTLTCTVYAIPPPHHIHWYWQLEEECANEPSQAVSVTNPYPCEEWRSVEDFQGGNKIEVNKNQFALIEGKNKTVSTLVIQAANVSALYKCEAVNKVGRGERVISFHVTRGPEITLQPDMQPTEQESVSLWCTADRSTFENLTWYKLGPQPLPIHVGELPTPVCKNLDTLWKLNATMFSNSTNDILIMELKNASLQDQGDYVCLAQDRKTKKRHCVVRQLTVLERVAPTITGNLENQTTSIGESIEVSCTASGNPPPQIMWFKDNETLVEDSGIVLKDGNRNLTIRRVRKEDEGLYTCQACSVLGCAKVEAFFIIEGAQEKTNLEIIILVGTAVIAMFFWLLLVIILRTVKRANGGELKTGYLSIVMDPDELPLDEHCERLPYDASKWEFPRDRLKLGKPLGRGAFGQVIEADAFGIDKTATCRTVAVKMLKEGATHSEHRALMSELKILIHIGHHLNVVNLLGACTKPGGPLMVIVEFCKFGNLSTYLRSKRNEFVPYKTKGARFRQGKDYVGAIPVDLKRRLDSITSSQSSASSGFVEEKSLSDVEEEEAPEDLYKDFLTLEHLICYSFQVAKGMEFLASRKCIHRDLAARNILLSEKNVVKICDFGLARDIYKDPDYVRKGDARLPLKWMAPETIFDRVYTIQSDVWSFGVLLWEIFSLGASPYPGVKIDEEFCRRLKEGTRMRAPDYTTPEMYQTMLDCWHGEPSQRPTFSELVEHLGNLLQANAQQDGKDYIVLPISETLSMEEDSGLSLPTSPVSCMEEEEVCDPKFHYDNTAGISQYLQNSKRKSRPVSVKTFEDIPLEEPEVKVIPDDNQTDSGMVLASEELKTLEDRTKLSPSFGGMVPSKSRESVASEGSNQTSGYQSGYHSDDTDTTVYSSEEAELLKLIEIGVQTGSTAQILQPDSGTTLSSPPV

Mus musculus [11] = species: Mus musculus; experiment: Toxicity in BALB/c mouse assessed as signs of anemia after 100 days; assay type: organism-based; settings: in vivo, 2400 h
TF-1 [12] = experiment: cells; settings: Homo sapiens, TF-1, 72 h; remark: listed apart in the source
Description: Cytotoxicity against human TF1 cells assessed as cell viability after 72 hrs by resazurin dye based fluorescence assay

[13] = target: T1, Mast/stem cell growth factor receptor Kit (Homo sapiens, UniProt P10721); experiment: Inhibition of SCF-induced phosphorylation of c-KIT in human TF1 cells after 1 hr by immunoblot analysis; assay type: cell-based, TF-1
T1 sequence (P10721 whole entry): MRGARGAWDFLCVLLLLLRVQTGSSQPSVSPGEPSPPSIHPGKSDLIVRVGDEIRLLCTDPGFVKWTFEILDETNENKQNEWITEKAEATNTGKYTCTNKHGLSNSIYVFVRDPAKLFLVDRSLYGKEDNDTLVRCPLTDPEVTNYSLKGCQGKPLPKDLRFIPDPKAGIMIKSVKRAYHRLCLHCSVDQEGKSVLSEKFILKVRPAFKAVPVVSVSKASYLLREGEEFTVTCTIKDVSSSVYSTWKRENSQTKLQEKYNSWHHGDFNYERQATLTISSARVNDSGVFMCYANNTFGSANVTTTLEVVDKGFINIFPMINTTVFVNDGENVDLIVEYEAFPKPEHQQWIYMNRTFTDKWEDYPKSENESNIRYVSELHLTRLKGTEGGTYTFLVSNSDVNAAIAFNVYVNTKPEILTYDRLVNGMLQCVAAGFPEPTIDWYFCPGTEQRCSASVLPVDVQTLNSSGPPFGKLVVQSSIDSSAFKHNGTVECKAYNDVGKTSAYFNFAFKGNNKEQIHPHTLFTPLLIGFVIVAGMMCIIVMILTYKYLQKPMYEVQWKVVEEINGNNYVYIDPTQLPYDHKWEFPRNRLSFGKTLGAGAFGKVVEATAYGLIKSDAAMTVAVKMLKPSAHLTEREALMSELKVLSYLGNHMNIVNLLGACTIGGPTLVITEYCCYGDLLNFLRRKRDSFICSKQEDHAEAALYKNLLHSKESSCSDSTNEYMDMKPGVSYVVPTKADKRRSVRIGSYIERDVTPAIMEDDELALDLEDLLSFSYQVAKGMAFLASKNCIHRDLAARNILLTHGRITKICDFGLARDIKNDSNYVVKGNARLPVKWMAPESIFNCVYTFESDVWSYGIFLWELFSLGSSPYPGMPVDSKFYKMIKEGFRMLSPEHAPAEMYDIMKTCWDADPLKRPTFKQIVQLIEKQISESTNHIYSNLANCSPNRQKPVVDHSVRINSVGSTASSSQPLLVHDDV

Mus musculus [14] = species: Mus musculus; experiment: Toxicity in BALB/c mouse assessed as change in body weight after 100 days; assay type: organism-based; settings: in vivo, 2400 h
MV4-11 [15] = experiment: Induction of apoptosis in human MV4-11 cells at 100 nM assessed as late apoptotic cells after 24 hrs by annexin V and propidium iodide staining method (reference value: 5.1 %); assay type: functional
[16] = target: T1, Mast/stem cell growth factor receptor Kit; experiment: Inhibition of c-KIT-mediated ERK 1/2 phosphorylation in human TF1 cells at 4 to 12 nM after 1 hr by immunoblot analysis; assay type: cell-based, TF-1
[17] = target: T2, Tyrosine-protein kinase JAK3 (Homo sapiens, UniProt P52333); experiment: Inhibition of Jak3
T2 sequence (P52333 whole entry): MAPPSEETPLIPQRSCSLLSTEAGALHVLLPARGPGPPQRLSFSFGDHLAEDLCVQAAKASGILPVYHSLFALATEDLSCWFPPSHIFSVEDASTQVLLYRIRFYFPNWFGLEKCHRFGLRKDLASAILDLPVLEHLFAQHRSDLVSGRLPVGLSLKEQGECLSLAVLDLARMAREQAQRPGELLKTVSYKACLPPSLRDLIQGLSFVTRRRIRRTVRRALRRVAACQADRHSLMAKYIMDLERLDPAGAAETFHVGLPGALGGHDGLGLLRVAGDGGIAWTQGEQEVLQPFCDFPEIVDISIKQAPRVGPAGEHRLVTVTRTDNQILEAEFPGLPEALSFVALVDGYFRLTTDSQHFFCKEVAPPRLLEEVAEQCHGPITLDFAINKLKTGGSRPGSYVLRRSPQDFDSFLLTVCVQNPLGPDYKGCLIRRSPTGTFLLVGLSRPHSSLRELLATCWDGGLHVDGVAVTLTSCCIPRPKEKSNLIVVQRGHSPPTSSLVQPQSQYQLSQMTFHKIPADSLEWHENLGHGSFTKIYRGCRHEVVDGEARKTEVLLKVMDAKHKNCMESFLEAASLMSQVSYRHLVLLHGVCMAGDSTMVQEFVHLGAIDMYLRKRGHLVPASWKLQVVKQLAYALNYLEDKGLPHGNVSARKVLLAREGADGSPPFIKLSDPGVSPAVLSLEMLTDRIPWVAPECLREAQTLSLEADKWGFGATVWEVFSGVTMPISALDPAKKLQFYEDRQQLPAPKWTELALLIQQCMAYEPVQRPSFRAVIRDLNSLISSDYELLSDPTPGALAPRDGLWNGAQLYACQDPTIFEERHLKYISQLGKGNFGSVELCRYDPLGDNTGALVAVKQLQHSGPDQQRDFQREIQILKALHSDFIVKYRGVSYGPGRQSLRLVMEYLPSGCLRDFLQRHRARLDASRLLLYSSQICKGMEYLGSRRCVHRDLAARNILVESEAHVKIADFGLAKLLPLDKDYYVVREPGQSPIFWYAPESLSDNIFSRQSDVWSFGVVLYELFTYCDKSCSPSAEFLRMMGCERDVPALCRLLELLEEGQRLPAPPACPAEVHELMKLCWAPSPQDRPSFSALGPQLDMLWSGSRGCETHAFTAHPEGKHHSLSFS

MV4-11 [18] = experiment: Induction of apoptosis in human MV4-11 cells at 100 nM assessed as apoptotic cells after 24 hrs by annexin V and propidium iodide staining method (reference value: […]); assay type: functional
TF-1 [19] = experiment: cells; settings: Homo sapiens, TF-1, 72 h; remark: listed apart in the source
Description: Cytotoxicity against human TF1 cells expressing FMS assessed as cell viability after 72 hrs by resazurin dye based fluorescence assay

Kasumi 1 = experiment: cells; settings: Homo sapiens, Kasumi 1, 72 h
Description: Cytotoxicity against human Kasumi-1 cells expressing c-KIT assessed as cell viability after 72 hrs by resazurin dye based fluorescence assay

MV4-11 [20] = experiment: Induction of apoptosis in human MV4-11 cells at 100 nM assessed as late apoptotic cells after 48 hrs by annexin V and propidium iodide staining method (reference value: 3.4 %); assay type: functional
[21] = target: T3, Receptor-type tyrosine-protein kinase FLT3 (Homo sapiens, UniProt P36888, ITD); experiment: Inhibition of FLT3 ITD mutant mediated Stat5 phosphorylation in human MV4-11 cells by immunoblot analysis; assay type: cell-based
T3 sequence (P36888 whole entry, looked up, change not shown): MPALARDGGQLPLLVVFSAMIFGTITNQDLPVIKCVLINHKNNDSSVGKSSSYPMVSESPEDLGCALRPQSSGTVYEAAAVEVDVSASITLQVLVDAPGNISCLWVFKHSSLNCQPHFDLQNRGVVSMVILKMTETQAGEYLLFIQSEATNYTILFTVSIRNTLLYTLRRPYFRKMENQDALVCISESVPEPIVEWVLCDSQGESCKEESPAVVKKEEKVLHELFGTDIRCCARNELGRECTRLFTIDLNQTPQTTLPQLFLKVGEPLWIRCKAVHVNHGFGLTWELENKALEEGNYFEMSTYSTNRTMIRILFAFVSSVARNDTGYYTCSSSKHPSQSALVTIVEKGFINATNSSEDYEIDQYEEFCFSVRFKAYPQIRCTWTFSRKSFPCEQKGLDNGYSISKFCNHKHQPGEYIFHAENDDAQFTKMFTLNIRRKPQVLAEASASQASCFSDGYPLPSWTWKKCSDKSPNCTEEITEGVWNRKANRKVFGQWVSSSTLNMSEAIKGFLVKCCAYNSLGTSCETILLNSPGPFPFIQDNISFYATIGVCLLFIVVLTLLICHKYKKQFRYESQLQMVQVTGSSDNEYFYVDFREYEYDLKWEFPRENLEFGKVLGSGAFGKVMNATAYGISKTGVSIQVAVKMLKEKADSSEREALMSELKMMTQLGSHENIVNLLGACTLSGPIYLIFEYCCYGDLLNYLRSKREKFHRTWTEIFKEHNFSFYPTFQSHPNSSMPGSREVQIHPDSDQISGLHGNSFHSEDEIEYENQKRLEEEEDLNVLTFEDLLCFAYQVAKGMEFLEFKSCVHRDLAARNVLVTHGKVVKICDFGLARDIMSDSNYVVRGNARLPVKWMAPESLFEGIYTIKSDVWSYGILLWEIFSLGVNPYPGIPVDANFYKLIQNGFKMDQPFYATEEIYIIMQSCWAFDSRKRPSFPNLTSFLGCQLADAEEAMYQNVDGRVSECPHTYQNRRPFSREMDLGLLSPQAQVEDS

Mus musculus [22] = experiment: Plasma concentration at steady state in BALB/c mouse xenografted with BA/F3 cells expressing FLT3-ITD mutant at 0.25 mg/kg, po qd; assay type: ADME, organism-based, BaF3; design: dose 0.25 mg/kg, route oral; settings: in vivo
cells [23] = settings: Homo sapiens, Leukemia cell, 72 h; remark: listed apart in the source
Description: Cytotoxicity against human primary leukemia cells isolated from acute myeloid leukemia patient expressing FLT3-ITD mutation assessed as cell viability after 72 hrs by luciferase assay

[24] = target: T3, Receptor-type tyrosine-protein kinase FLT3; experiment: (§1) Inhibition of FLT3 ITD mutant autophosphorylation in human MV4-11 cells after 1 hr by immunoblot analysis; assay type: cell-based
[25] = test system: Receptor-type tyrosine-protein kinase FLT3 (Homo sapiens), P36888 [UNDEFINED MUTATION]; experiment: as §1; assay type: cell-based
Sequence of Receptor-type tyrosine-protein kinase FLT3 (Homo sapiens), P36888 [UNDEFINED MUTATION] (P36888 whole entry, looked up, change not shown): as above

SMILES: Nc1nc(Nc2ccc([C@H]3CC[C@H](N4CCOCC4)CC3)cc2)nn1-c1ccccn1
- Activity (Leukemia cell): > 80%
- Cpss (Mus musculus [1]): 4 ng/mL
- Activity (BaF3 [2]): Dose-dependent effect
- IC50 (cells [3]): 20 nM
- half-life [4]: 15 h
- IC50 (THP-1): > 4000 nM
- IC50 (TF-1 [5]): 330 nM
- Activity (MV4-11 [6]): 54.5%
- MSD (BaF3 [7]): 34 days
- IC50 (cells [8]): 220 nM
- Cpss (Mus musculus [9]): 641 ng/mL
- Ki [10]: 85 nM
- Activity (Mus musculus [11]): Non-toxic
- IC50 (TF-1 [12]): > 4000 nM
- IC50 [13]: 4 nM
- inhibition ([13]; TF-1): Dose-dependent effect
- Activity (Mus musculus [14]): Non-toxic
- Activity (MV4-11 [15]): 32.5%
- IC50 [16]: 4 nM
- Ki [17]: 280 nM
- Activity (MV4-11 [18]): 8.4%
- IC50 (TF-1 [19]): > 4000 nM
- IC50 (Kasumi 1): 30 nM
- Activity (MV4-11 [20]): 42.8%
- IC50 [21]: 1.3 nM
- Cpss (Mus musculus [22]): 22 ng/mL
- IC50 (cells [23]): 12 nM
- IC50 [24]: 0.4 nM
- inhibition [25]: Dose-dependent effect
